Structures are written as SMILES. The source made the active and inactive calls. The rule behind the calls is not given here.

Experimental findings from ChEMBL document CHEMBL4622851, “Cytotoxicity of 4-substituted quinoline derivatives: Anticancer and antileishmanial potential” (Bioorg Med Chem, 2020) are described below.

The test system of assay [1] is SK-MEL-147. The experiment in a line: Cytotoxicity against human SK-MEL-147 cells assessed as reduction in cell viability at 50 and 100 uM after 24 hrs by MTT assay. It counts as functional, cell-based. Background: Formazan colour is commonly taken as a measure of viable cells.
In assay [2] the test system is Jurkat. The experiment in a line: Cytotoxicity against human Jurkat cells assessed as reduction in cell viability at 50 and 100 uM after 24 hrs by MTT assay. It is filed as functional, cell-based.
Assay [3] concerns SK-MEL-147. The experiment in a line: Cytotoxicity against human SK-MEL-147 cells assessed as reduction in cell viability after 24 hrs by MTT assay. It is filed as functional, cell-based. Particulars: SK-MEL-147, 24 h.
Assay [4] relates to Jurkat. The experiment in a line: Cytotoxicity against human Jurkat cells assessed as reduction in cell viability after 24 hrs by MTT assay. It is filed as functional, cell-based.
Assay [5] addresses T1, Cysteine proteinase B (Leishmania mexicana, UniProt P36400). The experiment in a line: Inhibition of Leishmania mexicana rCPB2.8 using Z-FR-AMC as substrate by spectrofluorometric analysis.
A short description of assay [6]: Inhibition of Leishmania mexicana rCPB3.0 using Z-FR-AMC as substrate by spectrofluorometric analysis.
The nature of assay [7]: Inhibition of Leishmania mexicana rCPB3.0 H84Y mutant using Z-FR-AMC as substrate by spectrofluorometric analysis.
The target of assay [8] is T1, Cysteine proteinase B. The experiment in a line: Inhibition of Leishmania mexicana rCPB2.8 assessed as inhibition constant using Z-FR-AMC as substrate preincubated for 10 mins followed by substrate addition by Lineweaver-Burk double reciprocal plot analysis.
Assay [9] can be described thus: Inhibition of Leishmania mexicana rCPB3.0 assessed as inhibition constant using Z-FR-AMC as substrate preincubated for 10 mins followed by substrate addition by Lineweaver-Burk double reciprocal plot analysis.
A short description of assay [10]: Inhibition of Leishmania mexicana rCPB3.0 H84Y mutant assessed as inhibition constant using Z-FR-AMC as substrate preincubated for 10 mins followed by substrate addition by Lineweaver-Burk double reciprocal plot analysis.
The target in assay [11] is Cysteine proteinase B (Leishmania mexicana) (UniProt P36400). The experiment in a line: Inhibition of Leishmania mexicana rCPB2.8 assessed as inhibition constant for uncompetitive inhibition using Z-FR-AMC as substrate preincubated for 10 mins followed by substrate addition by Lineweaver-Burk double reciprocal plot analysis.
The subject of assay [12] is Leishmania mexicana. The experiment in a line: Inhibition of Leishmania mexicana rCPB3.0 assessed as inhibition constant for uncompetitive inhibition using Z-FR-AMC as substrate preincubated for 10 mins followed by substrate addition by Lineweaver-Burk double reciprocal plot analysis.
Assay [13] has as its system Leishmania mexicana. The experiment in a line: Inhibition of Leishmania mexicana rCPB3.0 H84Y mutant assessed as inhibition constant for uncompetitive inhibition using Z-FR-AMC as substrate preincubated for 10 mins followed by substrate addition by Lineweaver-Burk double reciprocal plot analysis.
Assay [14] relates to SK-MEL-147. The experiment in a line: Cytotoxicity against human SK-MEL-147 cells assessed as reduction in cell viability at EC50 concentration preincubated for 1 hr in presence of GSH measured after 24 hrs by MTT assay. It is filed as functional, cell-based.
Assay [15] concerns SK-MEL-147. The experiment in a line: Induction of apoptosis in human SK-MEL-147 cells assessed as early apoptotic cells at 20 uM after 24 hrs by Annexin V-FITC/propidium iodide staining based flow cytometry. It is filed as functional, cell-based. On the technique in general: A flow cytometer gives signals particle by particle.
In assay [16] the test system is SK-MEL-147. The experiment in a line: Induction of apoptosis in human SK-MEL-147 cells assessed as late apoptotic cells at 20 uM after 24 hrs by Annexin V-FITC/propidium iodide staining based flow cytometry. It is filed as functional, cell-based.
The subject of assay [17] is SK-MEL-147. The experiment in a line: Induction of apoptosis in human SK-MEL-147 cells assessed as necrotic cells at 20 uM after 24 hrs by Annexin V-FITC/propidium iodide staining based flow cytometry. It is filed as functional, cell-based.
Assay [18] deals with SK-MEL-147. The experiment in a line: Induction of apoptosis in human SK-MEL-147 cells assessed as mitochondrial membrane potential dissipation after 24 hrs by TMRM staining based fluorescence microscopic method. It is filed as functional, cell-based.
Assay [19] relates to SK-MEL-147. The experiment in a line: Induction of apoptosis in human SK-MEL-147 cells assessed as increase in reactive oxygen species generation by CM-H2DCFDA staining based flow cytometric analysis. It is filed as functional, cell-based.
Assay [20] relates to SK-MEL-147. The experiment in a line: Induction of apoptosis in human SK-MEL-147 cells assessed mitochondrial permeabilization after 24 hrs by mitotracker green staining based microscopic analysis. It is filed as functional, cell-based.
The subject of assay [21] is SK-MEL-147. The experiment in a line: Cytotoxicity against human SK-MEL-147 cells assessed as reduction in cell viability at EC50 concentration preincubated for 1 hr in presence of DTT measured after 24 hrs by MTT assay. It is filed as functional, cell-based.
For assay [22], the system named is SK-MEL-147. The experiment in a line: Cytotoxicity against human SK-MEL-147 cells assessed as reduction in cell viability at EC50 concentration preincubated for 1 hr in presence of N-acetyl cysteine measured after 24 hrs by MTT assay. It is filed as functional, cell-based.
Assay [23] relates to SK-MEL. The experiment in a line: Cytotoxicity against human SK-MEL-147 cells assessed as reduction in cell viability at EC50 concentration preincubated for 1 hr in presence of EGTA measured after 24 hrs by MTT assay. It counts as functional, cell-based.
For assay [24], the system named is SK-MEL. The experiment in a line: Cytotoxicity against human SK-MEL-147 cells assessed as reduction in cell viability at EC50 concentration preincubated for 1 hr in presence of BAPTA measured after 24 hrs by MTT assay. It counts as functional, cell-based.
The test system of assay [25] is SK-MEL-147. The experiment in a line: Cytotoxicity against human SK-MEL-147 cells assessed as reduction in cell viability at EC50 concentration preincubated for 1 hr in presence of Boc-D-FMK measured after 24 hrs by MTT assay. It is filed as functional, cell-based.
The subject of assay [26] is SK-MEL-147. The experiment in a line: Cytotoxicity against human SK-MEL-147 cells assessed as reduction in cell viability at EC50 concentration preincubated for 1 hr in presence of E-64 measured after 24 hrs by MTT assay. It counts as functional, cell-based.
The species named for assay [27] is Rattus norvegicus. The experiment in a line: Induction of mitochondrial permeabilization in rat liver mitochondria assessed as mitochondrial transmembrane potential dissipation by rhodamine-123 dye based spectrofluorometer analysis. It counts as functional.
The species entered for assay [28] is Rattus norvegicus. The experiment in a line: Induction of mitochondrial permeabilization in rat liver mitochondria assessed as calcium efflux by calcium green based spectrofluorometer analysis. It is filed as functional.
For assay [29], the species on record is Rattus norvegicus. The experiment in a line: Induction of mitochondrial permeabilization in rat liver mitochondria assessed as mitochondrial transmembrane potential dissipation in presence of DTT by rhodamine-123 dye based spectrofluorometer analysis. It is filed as functional.
The species entered for assay [30] is Rattus norvegicus. The experiment in a line: Induction of mitochondrial permeabilization in rat liver mitochondria assessed as mitochondrial transmembrane potential dissipation in presence of CsA by rhodamine-123 dye based spectrofluorometer analysis. It counts as functional.
Assay [31] is filed under the species Rattus norvegicus. The experiment in a line: Induction of mitochondrial permeabilization in rat liver mitochondria assessed as mitochondrial transmembrane potential dissipation in presence of ADP by rhodamine-123 dye based spectrofluorometer analysis. It is filed as functional.
The species named for assay [32] is Rattus norvegicus. The experiment in a line: Induction of mitochondrial permeabilization in rat liver mitochondria assessed as calcium efflux in presence of DTT by calcium green based spectrofluorometer analysis. It counts as functional.
The species named for assay [33] is Rattus norvegicus. The experiment in a line: Induction of mitochondrial permeabilization in rat liver mitochondria assessed as calcium efflux in presence of CsA by calcium green based spectrofluorometer analysis. It is filed as functional.
For assay [34], the species on record is Rattus norvegicus. The experiment in a line: Induction of mitochondrial permeabilization in rat liver mitochondria assessed as calcium efflux in presence of ADP by calcium green based spectrofluorometer analysis. It is filed as functional.
Assay [35] relates to SK-MEL-147. The experiment in a line: Induction of apoptosis in human SK-MEL-147 cells assessed as increase in BAX expression at 20 uM after 24 hrs by western blotting analysis. It is filed as functional, cell-based. Background: In western blotting, separated proteins are transferred to a membrane and probed.
The test system of assay [36] is SK-MEL-147. The experiment in a line: Induction of apoptosis in human SK-MEL-147 cells assessed as effect on BCL-2 protein expression at 20 uM after 24 hrs by western blotting analysis. It is filed as functional, cell-based.
Assay [37] concerns SK-MEL-147. The experiment in a line: Cytotoxicity against human SK-MEL-147 cells assessed as reduction in cell viability in presence of BCL2 inhibitor venetoclax. It counts as functional, cell-based.
Another assay concerns the target Cathepsin B (Homo sapiens, UniProt P07858). The experiment in a line: Inhibition of cathepsin B (unknown origin) using Z-FR-AMC as substrate by spectrofluorometric analysis. Particulars: read-out: IC50.
The target of a further assay is Procathepsin L (Homo sapiens, UniProt P07711). The experiment in a line: Inhibition of cathepsin L (unknown origin) using Z-FR-AMC as substrate by spectrofluorometric analysis. Particulars: read-out: IC50.
Sequence of Procathepsin L (P07711 whole entry): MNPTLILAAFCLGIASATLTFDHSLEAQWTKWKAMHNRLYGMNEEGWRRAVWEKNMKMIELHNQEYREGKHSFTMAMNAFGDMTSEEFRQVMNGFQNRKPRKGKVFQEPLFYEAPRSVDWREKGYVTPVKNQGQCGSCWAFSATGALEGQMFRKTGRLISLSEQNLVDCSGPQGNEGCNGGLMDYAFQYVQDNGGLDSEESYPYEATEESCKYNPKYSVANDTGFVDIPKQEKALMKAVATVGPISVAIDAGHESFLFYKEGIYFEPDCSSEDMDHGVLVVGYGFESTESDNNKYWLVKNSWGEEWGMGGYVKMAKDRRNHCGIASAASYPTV

T1 sequence (P36400 whole entry): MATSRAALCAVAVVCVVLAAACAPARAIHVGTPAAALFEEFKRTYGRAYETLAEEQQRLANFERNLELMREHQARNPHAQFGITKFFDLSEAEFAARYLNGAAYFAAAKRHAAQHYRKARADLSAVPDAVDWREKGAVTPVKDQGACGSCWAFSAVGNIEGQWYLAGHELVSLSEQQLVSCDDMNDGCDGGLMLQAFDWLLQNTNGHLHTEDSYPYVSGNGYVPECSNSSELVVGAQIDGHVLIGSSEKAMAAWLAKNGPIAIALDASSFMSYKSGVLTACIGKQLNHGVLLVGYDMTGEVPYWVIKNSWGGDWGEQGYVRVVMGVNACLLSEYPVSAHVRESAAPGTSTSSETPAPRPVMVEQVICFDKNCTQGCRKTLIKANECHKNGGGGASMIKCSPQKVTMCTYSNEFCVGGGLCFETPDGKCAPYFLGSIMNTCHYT
Sequence of Cysteine proteinase B (Leishmania mexicana) (P36400 126-443 limits assumed): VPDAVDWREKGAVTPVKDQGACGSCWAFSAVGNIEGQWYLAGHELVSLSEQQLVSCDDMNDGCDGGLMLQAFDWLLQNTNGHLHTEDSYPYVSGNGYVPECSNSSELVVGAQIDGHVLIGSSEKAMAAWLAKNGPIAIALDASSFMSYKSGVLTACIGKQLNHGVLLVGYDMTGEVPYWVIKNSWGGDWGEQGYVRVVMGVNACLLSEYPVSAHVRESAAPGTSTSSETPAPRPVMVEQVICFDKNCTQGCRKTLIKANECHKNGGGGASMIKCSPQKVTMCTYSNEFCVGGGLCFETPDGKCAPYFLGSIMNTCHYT

As a reminder, the EC50 is the concentration that produces a half-maximal response. One may read the IC50 as the concentration at which inhibition is half-maximal. One may read the Ki as the dissociation constant of the complex between target and ligand, obtained from inhibition or displacement. Consider `COc1ccc([Se]c2cc(-c3ccc(O)cc3)nc3ccc(OC)cc23)cc1`, for which the outcome in the assay with SK-MEL-147 [1] and in the assay on Jurkat [2] was Active. For the same compound, the EC50 with SK-MEL-147 [3] amounted to 59.2 µM; in the assay with Jurkat [4], 41.5 µM. In addition, the half-maximal inhibitory concentration (IC50) at Cysteine proteinase B [5] worked out at 3.6 µM; in assay [6], 5.78 µM; in assay [7], 12.4 µM. Also, the Ki is 21.7 µM at Cysteine proteinase B [8], 18.5 µM in [9] and 18.3 µM in assay [10]. In addition, the alphaKi in assay [11] was found to be 22.1 µM; in the assay with Leishmania mexicana [12], 18.6 µM; with Leishmania mexicana [13] it was 18.4 µM.
With `CCCCC#Cc1cc(C(=O)OCC)nc2ccc(OC)cc12`, the outcome in the assay on SK-MEL-147 [14], with SK-MEL-147 [1], in the assay with Jurkat [2], in the assay on SK-MEL-147 [15], in the assay on SK-MEL-147 [16] and in the assay on SK-MEL-147 [17] was Active. Moreover, the outcome in the assay with SK-MEL-147 [18], in the assay on SK-MEL-147 [19], in the assay with SK-MEL-147 [20], in the assay with SK-MEL-147 [21], in the assay on SK-MEL-147 [22] and in the assay with SK-MEL [23] was Active. Also, the result in the assay with SK-MEL [24], in the assay filed under Rattus norvegicus [27], in the assay listed under Rattus norvegicus [28], in the assay filed under Rattus norvegicus [29], in the assay listed under Rattus norvegicus [30] and in the assay filed under Rattus norvegicus [31] was Active. Also, the outcome in the assay filed under Rattus norvegicus [32], in the assay listed under Rattus norvegicus [33], in the assay with SK-MEL-147 [35] and with SK-MEL-147 [37] was Active. Further, the half-maximal effective concentration (EC50) worked out at 7.2 µM with SK-MEL-147 [3] and 15.9 µM in the assay with Jurkat [4]. Moreover, the outcome in the assay on SK-MEL-147 [25], in the assay on SK-MEL-147 [26], in the assay listed under Rattus norvegicus [34] and with SK-MEL-147 [36] was inactive. For the same compound, the concentration for half-maximal inhibition (IC50) at Cathepsin B amounted to 6.86 µM; at Procathepsin L, 3.69 µM.
